ChEMBL document CHEMBL4476883, “Hydroxy formamide derivatives and their use” (2017)

What was measured:
[1] = target: T1, Bone morphogenetic protein 1 (Homo sapiens, UniProt P13497); assay: Inhibition of C-terminal FLAG-6x-His epitope tagged and N-terminal human RAGE signal sequence tagged human BMP1 (23 to 721 amino acids) expressed in CHO-E1A cells pre-incubated for 10 mins before promyostatin peptide substrate addition and measured after 60 mins using 0.5 nM BMP1 by FRET based assay; format: cell-based
T1 sequence (P13497 whole entry): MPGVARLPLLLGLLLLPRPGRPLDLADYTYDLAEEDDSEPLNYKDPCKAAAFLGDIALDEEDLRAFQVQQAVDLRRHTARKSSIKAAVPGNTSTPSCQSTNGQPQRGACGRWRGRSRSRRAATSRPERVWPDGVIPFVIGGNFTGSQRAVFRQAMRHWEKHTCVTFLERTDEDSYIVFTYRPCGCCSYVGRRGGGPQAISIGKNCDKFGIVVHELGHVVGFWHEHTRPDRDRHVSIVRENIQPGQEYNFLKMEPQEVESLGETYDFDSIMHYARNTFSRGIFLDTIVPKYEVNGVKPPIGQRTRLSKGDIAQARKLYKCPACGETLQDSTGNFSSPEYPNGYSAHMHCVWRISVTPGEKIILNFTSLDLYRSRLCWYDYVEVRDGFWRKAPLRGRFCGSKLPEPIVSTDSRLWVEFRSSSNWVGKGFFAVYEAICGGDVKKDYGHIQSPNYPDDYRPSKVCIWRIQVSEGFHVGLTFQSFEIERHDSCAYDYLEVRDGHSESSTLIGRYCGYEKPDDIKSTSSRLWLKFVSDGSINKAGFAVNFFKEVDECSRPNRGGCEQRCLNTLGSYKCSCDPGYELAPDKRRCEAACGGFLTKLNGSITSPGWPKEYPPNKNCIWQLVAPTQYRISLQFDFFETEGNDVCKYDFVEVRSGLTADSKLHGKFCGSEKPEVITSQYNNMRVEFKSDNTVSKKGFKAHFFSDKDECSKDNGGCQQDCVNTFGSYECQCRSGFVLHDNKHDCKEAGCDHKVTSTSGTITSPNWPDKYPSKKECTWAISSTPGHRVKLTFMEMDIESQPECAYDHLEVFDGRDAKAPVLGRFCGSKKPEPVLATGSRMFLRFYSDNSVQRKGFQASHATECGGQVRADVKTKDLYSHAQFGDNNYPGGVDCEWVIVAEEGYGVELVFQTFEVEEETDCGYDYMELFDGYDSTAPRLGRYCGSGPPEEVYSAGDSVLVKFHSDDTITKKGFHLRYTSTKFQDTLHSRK

[2] = target: T1, Bone morphogenetic protein 1; assay: Inhibition of C-terminal FLAG-6x-His epitope tagged and N-terminal human RAGE signal sequence tagged human BMP1 (23 to 721 amino acids) expressed in CHO-E1A cells pre-incubated for 10 mins before promyostatin peptide substrate addition and measured after 30 mins using 50 nM BMP1 by FRET based assay; format: cell-based
Tolloid-like protein 1 = Tolloid-like protein 1 (Homo sapiens, UniProt O43897, I156V/N221S/V284A); assay: Inhibition of recombinant human TLL1 I156V/N221S/V284A mutant expressed in CHOE1A cells pre-incubated for 10 mins before promyostatin peptide substrate addition and measured after 60 mins by FRET based assay; format: cell-based
Tolloid-like protein 2 = target: T2, Tolloid-like protein 2 (Homo sapiens, UniProt Q9Y6L7); assay: Inhibition of C-terminal Avi-6x-His epitope tagged and N-terminal human RAGE signal sequence tagged recombinant human TLL2 (26 to 1015 amino acids) expressed in CHOE1A cells incubated for 60 mins with promyostatin peptide substrate by FRET based assay; format: cell-based
T2 sequence (Q9Y6L7 whole entry): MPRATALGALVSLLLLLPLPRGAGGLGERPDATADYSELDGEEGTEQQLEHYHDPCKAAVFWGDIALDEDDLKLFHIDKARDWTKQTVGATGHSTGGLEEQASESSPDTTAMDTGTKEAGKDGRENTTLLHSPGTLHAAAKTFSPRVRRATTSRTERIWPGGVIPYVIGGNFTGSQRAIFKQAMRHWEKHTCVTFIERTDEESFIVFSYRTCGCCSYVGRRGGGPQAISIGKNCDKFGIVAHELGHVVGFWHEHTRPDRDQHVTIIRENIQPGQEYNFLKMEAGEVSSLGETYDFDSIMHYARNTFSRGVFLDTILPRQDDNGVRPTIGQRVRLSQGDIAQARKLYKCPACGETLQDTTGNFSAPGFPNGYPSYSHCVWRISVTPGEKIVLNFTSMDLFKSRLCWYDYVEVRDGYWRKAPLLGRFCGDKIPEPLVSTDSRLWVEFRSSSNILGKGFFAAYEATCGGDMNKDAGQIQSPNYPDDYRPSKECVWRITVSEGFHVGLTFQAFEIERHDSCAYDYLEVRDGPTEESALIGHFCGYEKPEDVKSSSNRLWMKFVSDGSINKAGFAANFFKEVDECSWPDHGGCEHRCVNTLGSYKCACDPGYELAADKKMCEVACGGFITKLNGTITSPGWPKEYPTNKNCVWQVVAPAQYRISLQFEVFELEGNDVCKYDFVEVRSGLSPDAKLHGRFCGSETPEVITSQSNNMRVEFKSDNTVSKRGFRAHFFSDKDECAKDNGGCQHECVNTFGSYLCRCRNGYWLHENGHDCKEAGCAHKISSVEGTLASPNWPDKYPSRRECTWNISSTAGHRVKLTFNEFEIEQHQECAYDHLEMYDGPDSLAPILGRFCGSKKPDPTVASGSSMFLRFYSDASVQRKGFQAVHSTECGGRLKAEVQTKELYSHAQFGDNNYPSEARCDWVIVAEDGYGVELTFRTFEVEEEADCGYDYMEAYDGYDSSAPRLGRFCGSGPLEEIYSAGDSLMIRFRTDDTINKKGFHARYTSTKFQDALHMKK

[3] = Reduction in PICP levels in human cardiac fibroblasts incubated for 24 to 48 hrs by ELISA; format: functional

Chain of Tolloid-like protein 1 (O43897 148-1013 I156V/N221S/V284A limits assumed): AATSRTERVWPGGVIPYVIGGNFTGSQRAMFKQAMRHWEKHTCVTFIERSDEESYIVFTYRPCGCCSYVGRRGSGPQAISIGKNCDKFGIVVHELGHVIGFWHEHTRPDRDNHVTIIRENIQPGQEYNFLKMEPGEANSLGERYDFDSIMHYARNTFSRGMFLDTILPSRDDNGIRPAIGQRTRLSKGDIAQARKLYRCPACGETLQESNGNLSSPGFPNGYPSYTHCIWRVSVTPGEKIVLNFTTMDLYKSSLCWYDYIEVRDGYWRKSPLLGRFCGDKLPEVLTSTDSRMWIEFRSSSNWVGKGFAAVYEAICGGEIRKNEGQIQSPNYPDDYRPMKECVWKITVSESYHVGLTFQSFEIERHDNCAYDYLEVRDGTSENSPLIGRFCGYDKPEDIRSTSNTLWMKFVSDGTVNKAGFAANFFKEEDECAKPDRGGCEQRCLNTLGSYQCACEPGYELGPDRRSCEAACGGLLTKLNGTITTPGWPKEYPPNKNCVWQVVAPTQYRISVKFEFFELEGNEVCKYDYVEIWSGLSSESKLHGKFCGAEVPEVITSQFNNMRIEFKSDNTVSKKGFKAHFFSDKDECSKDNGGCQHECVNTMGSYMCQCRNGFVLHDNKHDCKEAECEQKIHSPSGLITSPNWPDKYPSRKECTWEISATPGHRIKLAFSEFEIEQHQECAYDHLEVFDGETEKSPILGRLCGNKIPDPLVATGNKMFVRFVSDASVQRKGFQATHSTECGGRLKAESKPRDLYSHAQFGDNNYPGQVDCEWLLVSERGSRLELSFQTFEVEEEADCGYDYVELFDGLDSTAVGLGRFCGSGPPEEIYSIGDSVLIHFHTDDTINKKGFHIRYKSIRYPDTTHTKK

Row | IC50 [1] [nM] | IC50 [2] [nM] | IC50 (Tolloid-like protein 1) [nM] | IC50 (Tolloid-like protein 2) [nM] | Structure (SMILES) | IC50 [3] [µM]
1 | < 126 | < 251 | < 398 | < 631 | CCCCC[C@H](CN(O)C=O)C(=O)NCNC(=O)c1cccc(-c2cccc(OC)c2)c1 | < 20
2 | < 126 | < 251 | < 398 | < 631 | COc1cccc(-c2cccc(C(=O)NCNC(=O)[C@H](CC3CCCC3)CN(O)C=O)c2)c1 | < 20
3 | < 126 | < 251 | < 398 | < 631 | CCCCC[C@H](CN(O)C=O)C(=O)NCNC(=O)c1cccc(-c2ncc(C)o2)c1 | < 20
4 | < 126 | < 251 | < 398 | < 631 | CCCCC[C@H](CN(O)C=O)C(=O)NCNC(=O)c1cccc(-c2cc(OC)ccc2F)c1F | < 20
5 | < 126 | < 251 | < 398 | < 631 | O=CN(O)C[C@@H](CC1CCCC1)C(=O)NCNC(=O)c1cccc(-c2ccc(C(F)(F)F)cc2)c1 | < 20
6 | < 126 | < 251 | < 398 | < 631 | CCCCC[C@@H](C(=O)NCNC(=O)c1cccc(-c2cc(OCC)cc(C(=O)N[C@@H](CC(=O)O)C(=O)O)c2)c1)[C@@H](CC)N(O)C=O | < 20
7 | < 126 | < 251 | < 398 | < 631 | COc1ccccc1-c1cccc(C(=O)NCNC(=O)[C@H](CC2CCCC2)CN(O)C=O)c1 | < 20
8 | < 126 | < 251 | < 398 | < 631 | CCCCC[C@H](CN(O)C=O)C(=O)NCNC(=O)c1cccc(-c2ccnc(OC)n2)c1 | < 20
9 | < 126 | < 251 | < 398 | < 631 | CCCCC[C@@H](C(=O)NCNC(=O)c1cccc(-c2ccc(C(=O)O)cc2C)n1)[C@@H](CC)N(O)C=O | < 20
10 | < 126 | < 251 | < 398 | < 631 | CCCCC[C@H](CN(O)C=O)C(=O)NCNC(=O)c1cccc(-c2cnc(C)o2)c1 | < 20
11 | < 126 | < 251 | < 398 | < 631 | CCCCC[C@H](CN(O)C=O)C(=O)NCNC(=O)c1cccc(-c2nnn[nH]2)c1 | < 20
12 | < 126 | < 251 | < 398 | < 631 | CCCCC[C@H](CN(O)C=O)C(=O)NCNC(=O)c1cccc(-c2nc(C)c(C)o2)c1 | < 20
13 | < 126 | < 251 | < 398 | < 631 | O=CN(O)C[C@@H](CC1CCCC1)C(=O)NCNC(=O)c1cccc(-c2ccccc2)c1 | < 20
14 | < 126 | < 251 | < 398 | < 631 | CCCCC[C@H](CN(O)C=O)C(=O)NCNC(=O)c1cccc(-n2cc(C)cn2)c1 | < 20
15 | < 126 | < 251 | < 398 | < 631 | CCCCC[C@@H](C(=O)NCNC(=O)c1cccc(-c2cc(OCC)cc(C(=O)O)c2)c1)[C@@H](CC)N(O)C=O | < 20
16 | < 126 | < 251 | < 398 | < 631 | N#Cc1cccc(-c2cccc(C(=O)NCNC(=O)[C@H](CC3CCCC3)CN(O)C=O)c2)c1 | < 20
17 | < 126 | < 251 | < 398 | < 631 | CCCCC[C@@H](C(=O)NCNC(=O)c1cccc(-c2cccc(OC)c2F)c1F)[C@@H](CC)N(O)C=O | < 20
18 | < 126 | < 251 | < 398 | < 631 | O=CN(O)C[C@@H](CCc1ccccc1)C(=O)NCNC(=O)c1cccc(-c2cccc(B(O)O)c2)c1 | < 20
19 | < 126 | < 251 | < 398 | < 631 | O=CN(O)C[C@@H](CC1CCCC1)C(=O)NCNC(=O)c1cccc(Oc2ccccc2)c1 | < 20
